{"source": "patent US8329160B2", "about": "“Interferon alpha sequential regimen for treating cancers” (HI-Stem, priority 2007, dated 2012)", "key": {"HSCs [1]": {"test_system": "HSCs", "experiment": "Survival of mice under repeated 5FU after polyIC priming (IFN alpha pulse)", "assay_type": "in vivo", "procedure": "Wild-type C57B1/6 and IFNAR−/− mice were treated as follows: mice were injected with […] mouse polyIC (Invivogen) twice (polyIC is a double stranded RNA mimetic strongly inducing IFNα/b), the lag time between the two injections being 48 h. PolyIC injections are used in this experiment as IFN alpha “pulse”. Mice that were only treated with 5FU without priming injections of polyIC were used as controls.\n5-Fluoro-uracil (5FU) was injected (150 mg/kg, Sigma) at different times after the last polyIC injection: 0 h (same time as last polyIC injection); 24 h, 48 h, 72 h, 5 days and 7 days. The proliferation rate of cells at time of 5FU injection was analyzed by BrdU analysis of KLS cells as described in the above examples. Single 5FU injections were repeated every 7 days. The survival of the mice was monitored for a period of 20 days."}, "[2]": {"test_system": "hematopoietic stem cells (HSCs) (lineage-CD117+Sca1+)", "experiment": "BrdU uptake (proliferation rate) of KLS hematopoietic stem cells in treated mice", "assay_type": "in vivo", "procedure": "Wild-type C57B1/6 mice were treated with IFNα which was obtained as decribed in the literature (Le Bon et al., 2003, Nat. Immunol. 4(10):1009-15). at 0 h and 24 h, respectively with 10×10^3 U/mouse, and were then treated at 36 h with Bromodeoxyuridine (BrdU) at 360 μg/mouse for cell detection. Mice which were only injected with BrdU were used as control. Bone marrow was then taken from the long bones of hindlegs and prepared by standard procedures (Wilson et al., 2004, Genes & Dev 18; 2747-2763). Bone marrow cells were then stained with a cocktail of conjugated antibodies (Bioscience) against mice lineage markers (CD4, CD8, CD11b, Gr1, Ter119, B220), CD117 (c-kit), Sca1 (Ly-6A/E), CD34, CD135, CD48 or CD150). Cells were then fixed. BrdU uptake was analyzed using the BrdU staining kit (BD Biosciences).\nFive and six-color flurorescent-activated cell sorting (FACS) analysis (FITC, PE, PE-Cy5, PE-Cy7, APC, APC-Cy7) were performed using a FACS Canto flow cytometer (Becton Dickinson) as described in the literature (Wilson et al., 2004, above). Data were analyzed using FlowJo (Tree Star, Inc.; Ashland, USA software).\nPercentages of BrdU positive KLS-HSCs cells (lineage CD117+Sca1+) were determined as a measurement of the proliferation rate of these cells. The same BrdU analyses were performed on subpopulations of HSCs."}, "HSCs [3]": {"test_system": "HSCs", "experiment": "Mixed bone marrow chimeras (wt / IFNAR-/-), BrdU uptake in LSK cells", "assay_type": "in vivo, mice", "conditions": "IFNα 10×10^3 U/mouse", "procedure": "The different mice were treated with IFNα (10×103 U/mouse) in comparison with untreated wt mice (C) as described in Example 3. FIG. 2B represents the BrdU uptake in wt (CD45.1) and IFNAR−/− (CD45.2) LSK cells in the mixed bone marrow chimeras in response to treatment with IFNα.\nTo investigate whether HSCs respond directly to IFNα in vivo, mixed bone marrow “chimeras” comprising various ratios of wild-type (wt) and IFNAR−/− (IFNRKO) bone marrow cells were treated with IFNα (10×10^3 U/mouse) in comparison with untreated wt mice (C) (FIG. 2A)."}, "[4]": {"test_system": "dormant HSCs (KLS CD150+CD48-CD34-)", "experiment": "BrdU pulse-chase, label-retaining (dormant) long-term HSCs", "assay_type": "in vivo, mice", "procedure": "After a period of permanent BrdU labeling for 10 days, mice were kept without BrdU for 70 days. 14 days before the analysis, the mice were either treated three times with polylC or with PBS. 10 days later (and 70 days after the last BrdU injection) three HSC populations containing an increasing percentage of dormant HSCs were isolated and analysed for the presence of BrdU+label-retaining cells (LRCs), which represent dormant HSCs.\nC57B1/6 mice and IFNAR−/− mice were given BrdU (0.8 mg/ml; Sigma) in the drinking water for 10 days. After this BrdU pulse, mice were left for a chase of 10 weeks. Then, mice were twice injected with IFNα at a concentration of 10×10^3 U/mouse each (48 h gap between the 2 injections) or left untreated. BrdU uptake was then analyzed 10 days after the last IFNα injection. After this BrdU pulse-chase experiment in wild-type mice, about 15% of the long-term HSCs (KLS CD150+CD48−CD34−) are still labeled with BrdU (label retaining cells-LRCs). […] This was not the case with long-term HSCs lacking the IFN-receptor (in IFNAR−/− mice) showing that this effect is indeed mediated by Interferon signaling (FIG. 1D)."}}}
{"molecule": "O=c1[nH]cc(F)c(=O)[nH]1", "note": "[5FU, 5-Fluoro-uracil]", "values": [{"measurement": "survival of mice under repeated 5FU treatment without polyIC priming", "setting": "HSCs [1]; 5FU 150 mg/kg every 7 days, 20 days", "result": "do survive"}]}
{"molecule": "IFNα", "values": [{"measurement": "dose dependence of increase in proliferation", "setting": "[2]; different doses of IFNα (U/g of mouse)", "result": "dose-dependent"}, {"measurement": "proliferation in subpopulations of HSCs (long-term HSCs, short-term HSCs, MPPs)", "setting": "[2]; wild-type C57B1/6 mice, after IFNα treatment", "result": "increase in proliferation in all subpopulations of HSCs"}, {"measurement": "proliferation rate of HSCs (percentage of BrdU positive KLS cells)", "setting": "[2]; wild-type C57B1/6 mice, IFNα 10×10^3 U/mouse at 0 h and 24 h, BrdU at 36 h, untreated control 23%", "result": 63, "unit": "%"}, {"measurement": "absolute cell numbers of HSCs", "setting": "[2]; wild-type mice, after IFNα treatment", "result": "increase in absolute cell numbers"}, {"measurement": "activation of HSCs in mixed wt / IFNAR-/- bone marrow chimeras", "setting": "HSCs [3]", "result": "direct and an indirect activation"}, {"measurement": "reduction of LRC+ long-term HSCs (activation of dormant HSCs)", "setting": "[4]; IFNAR-/- mice (HSCs lacking the IFN-receptor)", "result": "not the case"}, {"measurement": "number of LRC+ long-term HSCs (BrdU label retaining cells)", "setting": "[4]; wild-type mice, 2 injections IFNα 10×10^3 U/mouse 48 h apart, analysed 10 days after last injection, untreated about 15% LRC", "result": "dramatically reduced"}]}
{"molecule": "polyIC [reference compound]", "values": [{"measurement": "increase of HSC proliferation rate (BrdU uptake)", "setting": "[2]; IFNAR-/- mice, polyIC once at 10 μg/g", "result": "not seen"}, {"measurement": "percentage of BrdU+-LRCs in HSC populations", "setting": "[4]; mice treated three times with polyIC vs PBS, 70 days after last BrdU", "result": "strongly reduced"}, {"measurement": "effect of polyIC priming on survival under 5FU", "setting": "HSCs [1]; IFNAR-/- mice", "result": "no effect on the survival"}, {"measurement": "survival of mice (lethality by elimination of all HSCs)", "setting": "HSCs [1]; wild-type C57B1/6, polyIC twice (48 h apart) prior to 5FU 150 mg/kg repeated every 7 days, 20 days monitoring", "result": "efficient lethality"}]}
